Where two headings read alike, the source gives them in different places.
Legend:
human Nav.1.7 = target: T1, human Nav.1.7 (Homo sapiens, UniProt Q15858); assay: Nav1.7 spiking HEK assay on Swarm; assay type: cell-based
T1 construct: expressed in transfected cells

Nav1.5 = details: cited from earlier work
[1] = normalized mean spike amplitude score, Prestwick library compounds
[2] = read-out: Nav1.5 Ionworks (IC50), automated patch clamp, literature reported, ref Harmer et al., 2011
[3] = compounds at 1 μM, cutoff 0.5 mean spike amplitude

T1 sequence (Q15858 whole entry): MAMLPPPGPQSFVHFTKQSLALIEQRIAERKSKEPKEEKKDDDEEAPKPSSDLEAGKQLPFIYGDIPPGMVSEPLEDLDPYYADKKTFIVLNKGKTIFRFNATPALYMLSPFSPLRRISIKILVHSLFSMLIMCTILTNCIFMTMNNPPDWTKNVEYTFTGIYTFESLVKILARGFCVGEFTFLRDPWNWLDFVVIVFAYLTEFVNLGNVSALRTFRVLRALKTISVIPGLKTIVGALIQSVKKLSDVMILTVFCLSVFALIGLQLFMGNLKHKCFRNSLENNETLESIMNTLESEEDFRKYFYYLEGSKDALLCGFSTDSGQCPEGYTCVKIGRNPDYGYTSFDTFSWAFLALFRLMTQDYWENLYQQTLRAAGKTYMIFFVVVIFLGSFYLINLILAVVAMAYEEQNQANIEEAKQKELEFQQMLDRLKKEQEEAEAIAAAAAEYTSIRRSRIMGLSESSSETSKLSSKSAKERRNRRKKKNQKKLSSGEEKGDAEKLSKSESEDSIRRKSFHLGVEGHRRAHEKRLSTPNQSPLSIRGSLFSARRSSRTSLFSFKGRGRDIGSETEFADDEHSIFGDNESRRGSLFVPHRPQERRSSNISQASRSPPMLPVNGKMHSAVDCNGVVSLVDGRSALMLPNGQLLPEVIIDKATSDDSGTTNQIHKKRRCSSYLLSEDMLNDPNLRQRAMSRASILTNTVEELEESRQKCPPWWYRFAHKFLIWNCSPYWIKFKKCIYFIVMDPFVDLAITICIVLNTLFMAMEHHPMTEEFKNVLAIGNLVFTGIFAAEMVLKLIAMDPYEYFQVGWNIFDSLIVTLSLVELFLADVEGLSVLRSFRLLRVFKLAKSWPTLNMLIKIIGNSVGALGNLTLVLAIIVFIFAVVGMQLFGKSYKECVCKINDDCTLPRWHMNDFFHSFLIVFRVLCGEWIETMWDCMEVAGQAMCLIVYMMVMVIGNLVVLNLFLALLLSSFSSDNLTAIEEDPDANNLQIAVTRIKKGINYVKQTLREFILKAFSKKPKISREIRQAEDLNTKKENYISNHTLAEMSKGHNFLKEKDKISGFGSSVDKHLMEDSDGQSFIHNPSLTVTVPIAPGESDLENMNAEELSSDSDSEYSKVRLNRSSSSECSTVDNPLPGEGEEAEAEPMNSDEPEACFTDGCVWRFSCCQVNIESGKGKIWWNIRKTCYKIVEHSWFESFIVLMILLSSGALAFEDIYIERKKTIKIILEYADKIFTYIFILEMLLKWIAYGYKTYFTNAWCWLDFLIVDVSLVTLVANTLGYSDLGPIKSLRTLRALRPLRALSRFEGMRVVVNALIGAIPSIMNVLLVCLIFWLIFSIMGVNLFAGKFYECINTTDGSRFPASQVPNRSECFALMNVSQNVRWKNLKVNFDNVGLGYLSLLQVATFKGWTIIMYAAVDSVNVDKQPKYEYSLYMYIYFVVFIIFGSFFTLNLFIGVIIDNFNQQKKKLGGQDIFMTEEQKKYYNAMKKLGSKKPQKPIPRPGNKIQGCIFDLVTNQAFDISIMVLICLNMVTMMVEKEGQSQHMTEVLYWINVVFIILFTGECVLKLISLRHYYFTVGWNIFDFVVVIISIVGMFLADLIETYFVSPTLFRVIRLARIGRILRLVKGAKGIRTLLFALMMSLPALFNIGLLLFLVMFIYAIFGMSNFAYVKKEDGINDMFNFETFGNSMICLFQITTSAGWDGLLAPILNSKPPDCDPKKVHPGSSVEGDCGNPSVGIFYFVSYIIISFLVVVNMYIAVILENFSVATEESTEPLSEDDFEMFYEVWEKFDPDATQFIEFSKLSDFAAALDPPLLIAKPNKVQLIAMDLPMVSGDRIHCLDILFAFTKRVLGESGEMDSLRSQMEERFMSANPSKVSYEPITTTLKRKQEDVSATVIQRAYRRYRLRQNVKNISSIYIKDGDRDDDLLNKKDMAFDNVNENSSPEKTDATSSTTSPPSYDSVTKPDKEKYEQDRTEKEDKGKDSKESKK

Row | SMILES | Nav1.7 Swarm (score at 3 µM) (human Nav.1.7; [1]) | IC50 (Nav1.5; [2]) [µM] | other results
1 | O=c1[nH]c2ccccc2n1CCCN1CCC(n2c(=O)[nH]c3cc(Cl)ccc32)CC1 [Domperidone] | 0.53 | 5.6 | –
2 | Cc1nc2n(c(=O)c1CCN1CCC(c3noc4cc(F)ccc34)CC1)CCCC2 [Risperidone] | – | – | Nav1.7 Swarm (score at 3 µM) (human Nav.1.7): 0.89
3 | CN[C@H]1CC[C@@H](c2ccc(Cl)c(Cl)c2)c2ccccc21 [Sertraline] | – | – | Nav1.7 Swarm (score at 3 µM) (human Nav.1.7): 0.87
4 | OCCN(CCO)c1nc(N2CCCCC2)c2nc(N(CCO)CCO)nc(N3CCCCC3)c2n1 [Dipyridamole] | 0.92 | 19.3 | –
5 | COc1ccc(CCN2CCC(Nc3nc4ccccc4n3Cc3ccc(F)cc3)CC2)cc1 [Astemizole] | 0.01 | 2.3 | –
6 | CCN(CC)Cc1cc(Nc2ccnc3cc(Cl)ccc23)ccc1O [Amodiaquin] | 0.95 | 9.7 | –
7 | CCN(CC)CCCC(C)Nc1ccnc2cc(Cl)ccc12 (stereo not drawn) [Chloroquine] | – | – | Nav1.7 Swarm (score at 3 µM) (human Nav.1.7): 0.98; IC50 (Nav1.5): 36.5 µM
8 | CN1CCN(C2=Nc3cc(Cl)ccc3Nc3ccccc32)CC1 [Clozapine] | 0.74 | 11.6 | –
9 | Nc1c(Br)cc(Br)cc1CN[C@H]1CC[C@H](O)CC1 [Ambroxol] | 0.80 | 15.2 | –
10 | CN(C)CCCC1(c2ccc(F)cc2)OCc2cc(C#N)ccc21 (stereo not drawn) [Citalopram] | 0.92 | 14.7 | –
11 | CN(C)CCCN1c2ccccc2Sc2ccc(Cl)cc21 [Chlorpromazine] | 0.32 | 2.8 | –
12 | CC(C)COCC(CN(Cc1ccccc1)c1ccccc1)N1CCCC1 (stereo not drawn) [Bepridil] | – | – | IC50 (Nav1.5): 1.9 µM
13 | O=C(NCC1CCCCN1)c1cc(OCC(F)(F)F)ccc1OCC(F)(F)F (stereo not drawn) [Flecainide] | 0.72 | 5.8 | –
14 | O=C(N[C@H](CO)[C@H](O)c1ccc([N+](=O)[O-])cc1)C(Cl)Cl [Chloramphenicol] | 1.07 | 215 | –
15 | CCN(CC)CC(=O)Nc1c(C)cccc1C [Lidocaine] | – | – | Nav1.7 Swarm (score at 3 µM) (human Nav.1.7): 0.91; IC50 (human Nav.1.7; 8 mM bath [K+], mean spike amplitude across all test pulses): 15 µM
16 | Clc1ccc2c(c1)C(N1CCNCC1)=Nc1ccccc1O2 [Amoxapine] | – | 5.8 | –
17 | C=C1C[C@@H]2[C@H](CC[C@]3(C)C(=O)CC[C@@H]23)[C@@]2(C)C=CC(=O)C=C12 [Exemestane] | 0.90 | 71.3 | –
18 | CN(C)CCC=C1c2ccccc2COc2ccccc21 [doxepin] | – | – | Hit identification in Prestwick Chemical Library pilot screen (human Nav.1.7; [3]): hits
19 | CN(C)CCCN1c2ccccc2CCc2ccc(Cl)cc21 [Clomipramine] | – | 2.6 | Hit identification in Prestwick Chemical Library pilot screen (human Nav.1.7): hits; Nav1.7 Swarm (score at 3 µM) (human Nav.1.7): 0.20

Row | SMILES | Nav1.7 Swarm (score at 3 µM) (human Nav.1.7; [1]) | IC50 (Nav1.5; [2]) [µM] | other results
20 | COc1ccc(C(CN(C)C)C2(O)CCCCC2)cc1 (stereo not drawn) [Venlafaxine] | 0.95 | 90.1 | –
21 | CN(C)C(=O)C(CCN1CCC(O)(c2ccc(Cl)cc2)CC1)(c1ccccc1)c1ccccc1 [Loperamide] | – | – | Nav1.7 Swarm (score at 3 µM) (human Nav.1.7): 0.04; IC50 (Nav1.5): 2.9 µM
22 | CN1CCC(=C2c3ccccc3C=Cc3ccccc32)CC1 [Cyproheptadine] | 0.44 | 6.1 | –
23 | CNCCC(Oc1ccc(C(F)(F)F)cc1)c1ccccc1 (stereo not drawn) [Fluoxetine] | – | 4.9 | Nav1.7 Swarm (score at 3 µM) (human Nav.1.7): 0.64
24 | CCc1nn(CCCN2CCN(c3cccc(Cl)c3)CC2)c(=O)n1CCOc1ccccc1 [nefazodone] | – | – | Hit identification in Prestwick Chemical Library pilot screen (human Nav.1.7; [3]): hits
25 | CC(NC(C)(C)C)C(=O)c1cccc(Cl)c1 (stereo not drawn) [Bupropion] | 0.97 | 76.2 | –
26 | COc1ccc([C@@H]2Sc3ccccc3N(CCN(C)C)C(=O)[C@@H]2OC(C)=O)cc1 [Diltiazem] | 0.82 | 14.2 | –
27 | C=C[C@H]1C[N@@]2CC[C@H]1C[C@@H]2[C@@H](O)c1ccnc2ccc(OC)cc12 [Quinidine] | – | 9.7 | –
28 | Cc1cc2c(s1)Nc1ccccc1N=C2N1CCN(C)CC1 [Olanzapine] | – | – | Nav1.7 Swarm (score at 3 µM) (human Nav.1.7): 1.09
29 | Fc1ccc(C(c2ccc(F)cc2)N2CCN(C/C=C/c3ccccc3)CC2)cc1 [Flunarizine] | 0.16 | 2.6 | –
30 | CC(C)N(CCC(C(N)=O)(c1ccccc1)c1ccccn1)C(C)C (stereo not drawn) [Disopyramide] | 0.94 | 302 | –
31 | CCCCc1oc2ccccc2c1C(=O)c1cc(I)c(OCCN(CC)CC)c(I)c1 [Amiodarone] | – | – | Nav1.7 Swarm (score at 3 µM) (human Nav.1.7): 0.52
32 | CCCCN1CCCCC1C(=O)Nc1c(C)cccc1C (stereo not drawn) [Bupivacaine] | 0.27 | 4.3 | –
33 | CCN(CC)CCNC(=O)c1cc(Br)c(N)cc1OC [Bromopride] | 0.92 | 41.4 | –
34 | O=C1CC2(CCCC2)CC(=O)N1CCCCN1CCN(c2ncccn2)CC1 [Buspirone] | 0.97 | 125 | –
35 | CNCCCN1c2ccccc2CCc2ccccc21 [Desipramine] | 0.38 | 2.4 | Hit identification in Prestwick Chemical Library pilot screen (human Nav.1.7; [3]): hits
36 | CC(C)NC[C@@H](O)COc1cccc2ccccc12 [(R)-Propranolol] | 0.63 | – | IC50 (Nav1.5): 7.5 µM
37 | OCCN1CCN(CCCN2c3ccccc3Sc3ccc(C(F)(F)F)cc32)CC1 [Fluphenazine] | 0.31 | 8 | –

The next lines start with results.

Row | Nav1.7 Swarm (score at 3 µM) (human Nav.1.7; [1]) | SMILES | IC50 (Nav1.5; [2]) [µM] | other results
38 | 1.07 | O=C1Cc2cc(CCN3CCN(c4nsc5ccccc45)CC3)c(Cl)cc2N1 [Ziprasidone] | 170 | –
39 | 0.96 | CC(=O)N1CCN(c2ccc(OCC3COC(Cn4ccnc4)(c4ccc(Cl)cc4Cl)O3)cc2)CC1 (stereo not drawn) [Ketoconazole] | 44.9 | –
40 | 0.20 | CCCNCC(O)COc1ccccc1C(=O)CCc1ccccc1 (stereo not drawn) [Propafenone] | – | –
41 | 0.64 | O=C1NCCN1CCN1CCC(c2cn(-c3ccc(F)cc3)c3ccc(Cl)cc23)CC1 [Sertindole] | 8.1 | –
42 | 1.01 | COC(=O)[C@H]1[C@H]2C[C@@H]3c4[nH]c5cc(OC)ccc5c4CCN3C[C@H]2C[C@@H](OC(=O)c2cc(OC)c(OC)c(OC)c2)[C@@H]1OC [Reserpine] | 10.5 | –
43 | 0.07 | COC(=O)C1=C(C)NC(C)=C(C(=O)OCCN(C)Cc2ccccc2)C1c1cccc([N+](=O)[O-])c1 (stereo not drawn) [Nicardipine] | 4.3 | –
44 | 0.59 | C1CCC(C(CC2CCCCN2)C2CCCCC2)CC1 (stereo not drawn) [Perhexiline] | 3.4 | –
45 | 0.89 | O=c1[nH]c2ccccc2n1C1CCN(CCCC(c2ccc(F)cc2)c2ccc(F)cc2)CC1 [Pimozide] | 1.7 | –
46 | 0.63 | CNCCCC1c2ccccc2C=Cc2ccccc21 [Protriptyline] | 3.1 | –
47 | 1.00 | CCN(CC)CCNC(=O)c1ccc(N)cc1 [Procainamide] | – | –
48 | 0.25 | CN1CCN(CCCN2c3ccccc3Sc3ccc(C(F)(F)F)cc32)CC1 [Trifluoperazine] | 7.4 | –
49 | 0.96 | Cc1cccc(C)c1NC(=O)C1CCCCN1C (stereo not drawn) [Mepivacaine] | 81.4 | –
50 | 0.22 | OCc1cc(C(O)CNCCCCCCOCCCCc2ccccc2)ccc1O (stereo not drawn) [Salmeterol] | 7.2 | –
51 | 0.56 | OCCOCCN1CCN(C(c2ccccc2)c2ccc(Cl)cc2)CC1 (stereo not drawn) [Hydroxyzine] | 32.8 | –
52 | 0.37 | CC(CN(C)C)CN1c2ccccc2CCc2ccccc21 (stereo not drawn) [Trimipramine] | 2.7 | Hit identification in Prestwick Chemical Library pilot screen (human Nav.1.7; [3]): hits
53 | 0.19 | CNCCC=C1c2ccccc2CCc2ccccc21 [Nortriptyline] | 2 | Hit identification in Prestwick Chemical Library pilot screen (human Nav.1.7; [3]): hits

Row | Nav1.7 Swarm (score at 3 µM) (human Nav.1.7; [1]) | SMILES | IC50 (Nav1.5; [2]) [µM] | other results
54 | 0.97 | CC#C[C@]1(O)CC[C@H]2[C@@H]3CCC4=CC(=O)CCC4=C3[C@@H](c3ccc(N(C)C)cc3)C[C@@]21C [Mifepristone] | 25.8 | –
55 | 0.14 | Nc1nc2ccc(OC(F)(F)F)cc2s1 [Riluzole] | – | –
56 | 0.40 | CN1CCCCC1CCN1c2ccccc2Sc2ccc([S+](C)[O-])cc21 (stereo not drawn) [Mesoridazine] | 7.2 | –
57 | 0.88 | CC(Oc1c(Cl)cccc1Cl)C1=NCCN1 (stereo not drawn) [Lofexidine] | 27.2 | –
58 | 0.04 | CSc1ccc2c(c1)N(CCC1CCCCN1C)c1ccccc1S2 (stereo not drawn) [Thioridazine] | 3.5 | –
59 | 1.06 | COc1c(N2C[C@@H]3CCCN[C@@H]3C2)c(F)cc2c(=O)c(C(=O)O)cn(C3CC3)c12 [Moxifloxacin] | – | –
60 | -0.09 | O=C(CCCN1CCC(O)(c2ccc(Cl)cc2)CC1)c1ccc(F)cc1 [Haloperidol] | 2.3 | –
61 | 0.15 | CCOC(=O)Nc1ccc2c(c1)N(C(=O)CCN1CCOCC1)c1ccccc1S2 [Moricizine] | 1.2 | –
62 | 0.97 | COC(=O)C1=C(C)NC(C)=C(C(=O)OC)C1c1ccccc1[N+](=O)[O-] [Nifedipine] | – | –
63 | 0.35 | CN(C)CCCN1c2ccccc2CCc2ccccc21 [Imipramine] | – | Hit identification in Prestwick Chemical Library pilot screen (human Nav.1.7; [3]): hits
64 | 0.99 | CCc1nc(N)nc(N)c1-c1ccc(Cl)cc1 [Pyrimethamine] | 24.6 | –
65 | 0.24 | COC(=O)C1=C(C#N)NC(C)=C(C(=O)OC(C)C)C1c1cccc([N+](=O)[O-])c1 (stereo not drawn) [Nilvadipine] | 2.3 | –
66 | 0.95 | CCCNC(C)C(=O)Nc1ccccc1C (stereo not drawn) [Prilocaine] | 72.6 | –
67 | 0.39 | CC(C)(C)c1ccc(C(O)CCCN2CCC(C(O)(c3ccccc3)c3ccccc3)CC2)cc1 (stereo not drawn) [Terfenadine] | – | –
68 | 0.62 | CCOC(=O)N1CCC(=C2c3ccc(Cl)cc3CCc3cccnc32)CC1 [Loratadine] | – | –
69 | 0.98 | CC12CC3CC(C)(C1)CC(N)(C3)C2 [Memantine] | 92.6 | –
